Results on eleven compounds are retold here after ChEMBL document CHEMBL1158673, “Bioactive kaurane diterpenoids from Annona glabra” (J Nat Prod, 1998).

Data set [1] concerns Human immunodeficiency virus. Kind of data set: Inhibition of HIV reverse transcriptase at 33 ug/mL by scintillation counting.
For the next data set, the system named is H9. Kind of data set: Cytotoxicity against human H9 cells. Type of data set: cell-based.
Data set [2] has as its system Human immunodeficiency virus. Kind of data set: Antiviral activity against HIV infected in human H9 cells assessed as viral replication. Type of data set: functional, organism-based. The note with it: for EC50: Human immunodeficiency virus 1, H9.
Data set [3] is described as follows: Therapeutic index, ratio of IC50 for human H9 cells to EC50 for HIV. Type of data set: cell-based. The note with it: for Activity: human, h9; for therapeutic index: H9.

≈ marks a conversion by molar mass, not a printed value. Calls of active or inactive are those of the source. No cut-off for these calls is given here.

The term inhibition denotes the percentage by which the read-out fell short of the control. A high value points to a response far below the control. `C[C@@]12CCC[C@@](C)(C(=O)O)[C@H]1CC[C@@]13C[C@H](CC[C@H]12)[C@@](O)(CO)C3` showed an inhibition in data set [1] of 46%.

As usually defined, the IC50 is the point on the concentration scale where inhibition reaches its midpoint. A higher IC50 goes with weaker potency in that assay. `CC(=O)OC[C@]1(C)CCC[C@]2(C)[C@@H]1CC[C@@]13C[C@H](CC[C@H]12)[C@@H](C(=O)O)C3` [ANNOGLABASIN B] yielded a half-maximal inhibitory concentration (IC50) in the data set on H9 of 40 µg/mL (≈ 110 µM). Also, in data set [2], the outcome was inactive. In addition, in data set [3], the Activity entry is given as “Not Active”.

With `C[C@@]12CCC[C@@](C)(C=O)[C@H]1CC[C@@]13C[C@H](CC[C@H]12)[C@@H](C(=O)O)C3`, in data set [1], the inhibition is 14%.

In general, EC50 refers to the concentration needed to bring the measured effect to its halfway point. As to `COC(=O)[C@H]1C[C@@]23CC[C@H]4[C@@](C)(CCC[C@@]4(C)C=O)[C@@H]2CC[C@H]1C3`, in the data set on H9, 20 µg/mL (≈ 60.2 µM) corresponded to half-maximal inhibition (IC50). Moreover, the EC50 in data set [2] is 5 µg/mL (≈ 15 µM). Besides, the therapeutic index in data set [3] is 4.

`C=C1C[C@@]23CC[C@H]4[C@@](C)(CCC[C@@]4(C)C(=O)O)[C@@H]2CC[C@@H]1C3` showed an inhibition in data set [1] of 1%.

`Cc1cn([C@H]2C[C@H](N=[N+]=[N-])[C@@H](CO)O2)c(=O)[nH]c1=O` [ZIDOVUDINE]: the EC50 in data set [2] amounted to 0.01 µg/mL (≈ 0.0374 µM). Also, in data set [3], the therapeutic index was found to be 50000.

Compound `CC1(C)CCC[C@]2(C)[C@@H]1CC[C@@]13C[C@H](CC[C@H]12)[C@@H](C(=O)O)C3` registered a concentration for half-maximal inhibition (IC50) in the data set with H9 of 40 µg/mL (≈ 131 µM). Further, in data set [2], the result was inactive. The Activity entry in data set [3] is reported as “Not Active”.

For `CC1(C)CCC[C@]2(C)[C@@H]1CC[C@@]13C[C@H](CC[C@H]12)[C@H](C(=O)O)C3`, the IC50 in the data set with H9 is 32 µg/mL (≈ 105 µM). Besides, the 50% effective concentration (EC50) in data set [2] stood at 24 µg/mL (≈ 78.8 µM). Moreover, the therapeutic index in data set [3] was 1.3.

Consider `CC(=O)OC[C@]1(O)C[C@@]23CC[C@H]4[C@@](C)(CCC[C@@]4(C)C(=O)O)[C@@H]2CC[C@H]1C3`, for which the IC50 with H9 worked out at 65 µg/mL (≈ 172 µM). The EC50 in data set [2] was 85 µg/mL (≈ 225 µM). Besides, in data set [3], the therapeutic index came to 0.8.

The compound `COC(=O)[C@]1(OC(C)=O)C[C@@]23CC[C@H]4[C@@](C)(CCC[C@@]4(C)C=O)[C@@H]2CC[C@H]1C3` [ANNOGLABASIN A] displayed a half-inhibitory concentration (IC50) with H9 of 15 µg/mL (≈ 38.4 µM). The EC50 in data set [2] came to 10 µg/mL (≈ 25.6 µM). Besides, in data set [3], the therapeutic index is 1.5.

In the case of `C=C1C[C@@]23CC[C@@H]4[C@](C)(CO)CCC[C@@]4(C)[C@@H]2CC[C@H]1C3`, the inhibition in data set [1] was found to be 7%.
